Patent US20260124184A1, “ONCE DAILY ALDOSTERONE SYNTHASE INHIBITOR (R)-(+)-5-(P-CYANOPHENYL)-5,6,7,8-TETRAHYDROIMIDAZO[L,5-A]PYRIDINE” (priority 2022, published 2026)
Where two headings read alike, the source gives them in different places.

System: patients with primary aldosteronism
Protocol: A double-blind, randomized, Phase 2 trial was conducted between November 2019 and June 2022 at 11 centres in Italy, Switzerland and the Netherlands (NCT04007406). […] Patients requiring fixed-dose antihypertensive therapy continued treatment throughout the study; steroid therapies, β-adrenergic and renin-angiotensin-aldosterone system blockers were not permitted. At 14-day intervals, office blood pressures were recorded and blood samples were taken for measurement of steroid and peptide hormones and electrolytes at a central laboratory.
Plasma aldosterone and plasma renin concentration were measured centrally under GCP regulations using the Liaison® chemiluminescent immunoassay kit supplied by DiaSorin S.p.A. Italy. The system used specific monoclonal antibodies to prevent cross reactions with other major potential reactants in the serum samples. The monoclonal antibodies directed against specific epitopes of the renin molecule allowed accurate and sensitive quantification. The assays were performed according to the instructions provided by the manufacturer. […] The analytical sensitivity was <0.97 ng/ml. […] The analytical sensitivity was <0.53 IU/mL.

(R)-(+)-5-(p-cyanophenyl)-5,6,7,8-tetrahydroimidazolium[1,5-a]pyridine dihydrogen phosphate [dexfadrostat phosphate]
plasma aldosterone concentration, mean (baseline aldosterone 400-600 pmol/L, 4 mg QD, Day 1 (baseline)): 433 pmol/L | plasma aldosterone concentration, mean (baseline aldosterone 400-600 pmol/L, 4 mg QD, Day 14): 155 pmol/L | plasma aldosterone concentration, mean (baseline aldosterone 400-600 pmol/L, 4 mg QD, Day 28): 100 pmol/L | plasma aldosterone concentration, mean (baseline aldosterone 400-600 pmol/L, 4 mg QD, Day 42): 117 pmol/L | plasma aldosterone concentration, mean (baseline aldosterone 400-600 pmol/L, 4 mg QD, Day 56): 141 pmol/L | plasma aldosterone concentration, mean (baseline aldosterone 400-600 pmol/L, 4 mg QD, Day 70 (placebo withdrawal)): 425 pmol/L | plasma aldosterone concentration, mean (baseline aldosterone 400-600 pmol/L, 8 mg QD, Day 1 (baseline)): 404 pmol/L | plasma aldosterone concentration, mean (baseline aldosterone 400-600 pmol/L, 8 mg QD, Day 14): 70 pmol/L | plasma aldosterone concentration, mean (baseline aldosterone 400-600 pmol/L, 8 mg QD, Day 28): 70 pmol/L | plasma aldosterone concentration, mean (baseline aldosterone 400-600 pmol/L, 8 mg QD, Day 42): 47 pmol/L | plasma aldosterone concentration, mean (baseline aldosterone 400-600 pmol/L, 8 mg QD, Day 56): 58 pmol/L | plasma aldosterone concentration, mean (baseline aldosterone 400-600 pmol/L, 8 mg QD, Day 70 (placebo withdrawal)): 300 pmol/L | plasma aldosterone concentration, mean (baseline aldosterone 400-600 pmol/L, 12 mg QD, Day 1 (baseline)): 431 pmol/L | plasma aldosterone concentration, mean (baseline aldosterone 400-600 pmol/L, 12 mg QD, Day 14): 63 pmol/L | plasma aldosterone concentration, mean (baseline aldosterone 400-600 pmol/L, 12 mg QD, Day 28): 132 pmol/L | plasma aldosterone concentration, mean (baseline aldosterone 400-600 pmol/L, 12 mg QD, Day 42): 142 pmol/L | plasma aldosterone concentration, mean (baseline aldosterone 400-600 pmol/L, 12 mg QD, Day 56): 61 pmol/L | plasma aldosterone concentration, mean (baseline aldosterone 400-600 pmol/L, 12 mg QD, Day 70 (placebo withdrawal)): 297 pmol/L | plasma aldosterone concentration, mean (baseline aldosterone 600-1000 pmol/L, 4 mg QD, Day 1 (baseline)): 728 pmol/L | plasma aldosterone concentration, mean (baseline aldosterone 600-1000 pmol/L, 4 mg QD, Day 14): 186 pmol/L | plasma aldosterone concentration, mean (baseline aldosterone 600-1000 pmol/L, 4 mg QD, Day 28): 248 pmol/L | plasma aldosterone concentration, mean (baseline aldosterone 600-1000 pmol/L, 4 mg QD, Day 42): 114 pmol/L | plasma aldosterone concentration, mean (baseline aldosterone 600-1000 pmol/L, 4 mg QD, Day 56): 250 pmol/L | plasma aldosterone concentration, mean (baseline aldosterone 600-1000 pmol/L, 4 mg QD, Day 70 (placebo withdrawal)): 325 pmol/L | plasma aldosterone concentration, mean (baseline aldosterone 600-1000 pmol/L, 8 mg QD, Day 1 (baseline)): 805 pmol/L | plasma aldosterone concentration, mean (baseline aldosterone 600-1000 pmol/L, 8 mg QD, Day 14): 83 pmol/L | plasma aldosterone concentration, mean (baseline aldosterone 600-1000 pmol/L, 8 mg QD, Day 28): 120 pmol/L | plasma aldosterone concentration, mean (baseline aldosterone 600-1000 pmol/L, 8 mg QD, Day 42): 123 pmol/L | plasma aldosterone concentration, mean (baseline aldosterone 600-1000 pmol/L, 8 mg QD, Day 56): 131 pmol/L | plasma aldosterone concentration, mean (baseline aldosterone 600-1000 pmol/L, 8 mg QD, Day 70 (placebo withdrawal)): 423 pmol/L | plasma aldosterone concentration, mean (baseline aldosterone 600-1000 pmol/L, 12 mg QD, Day 1 (baseline)): 912 pmol/L | plasma aldosterone concentration, mean (baseline aldosterone 600-1000 pmol/L, 12 mg QD, Day 14): 123 pmol/L | plasma aldosterone concentration, mean (baseline aldosterone 600-1000 pmol/L, 12 mg QD, Day 28): 104 pmol/L | plasma aldosterone concentration, mean (baseline aldosterone 600-1000 pmol/L, 12 mg QD, Day 42): 85 pmol/L | plasma aldosterone concentration, mean (baseline aldosterone 600-1000 pmol/L, 12 mg QD, Day 56): 82 pmol/L | plasma aldosterone concentration, mean (baseline aldosterone 600-1000 pmol/L, 12 mg QD, Day 70 (placebo withdrawal)): 466 pmol/L | plasma aldosterone concentration, mean (baseline aldosterone 1000-2500 pmol/L, 4 mg QD, Day 1 (baseline)): 2005 pmol/L | plasma aldosterone concentration, mean (baseline aldosterone 1000-2500 pmol/L, 4 mg QD, Day 14): 816 pmol/L | plasma aldosterone concentration, mean (baseline aldosterone 1000-2500 pmol/L, 4 mg QD, Day 28): 531 pmol/L | plasma aldosterone concentration, mean (baseline aldosterone 1000-2500 pmol/L, 4 mg QD, Day 42): 629 pmol/L | plasma aldosterone concentration, mean (baseline aldosterone 1000-2500 pmol/L, 4 mg QD, Day 56): 589 pmol/L | plasma aldosterone concentration, mean (baseline aldosterone 1000-2500 pmol/L, 4 mg QD, Day 70 (placebo withdrawal)): 1393 pmol/L | plasma aldosterone concentration, mean (baseline aldosterone 1000-2500 pmol/L, 8 mg QD, Day 1 (baseline)): 1080 pmol/L | plasma aldosterone concentration, mean (baseline aldosterone 1000-2500 pmol/L, 8 mg QD, Day 14): 27 pmol/L | plasma aldosterone concentration, mean (baseline aldosterone 1000-2500 pmol/L, 8 mg QD, Day 28): 57 pmol/L | plasma aldosterone concentration, mean (baseline aldosterone 1000-2500 pmol/L, 8 mg QD, Day 42): 27 pmol/L | plasma aldosterone concentration, mean (baseline aldosterone 1000-2500 pmol/L, 8 mg QD, Day 56): 27 pmol/L | plasma aldosterone concentration, mean (baseline aldosterone 1000-2500 pmol/L, 8 mg QD, Day 70 (placebo withdrawal)): 395 pmol/L | plasma aldosterone concentration, mean (baseline aldosterone 1000-2500 pmol/L, 12 mg QD, Day 1 (baseline)): 1410 pmol/L | plasma aldosterone concentration, mean (baseline aldosterone 1000-2500 pmol/L, 12 mg QD, Day 14): 111 pmol/L | plasma aldosterone concentration, mean (baseline aldosterone 1000-2500 pmol/L, 12 mg QD, Day 28): 74 pmol/L | plasma aldosterone concentration, mean (baseline aldosterone 1000-2500 pmol/L, 12 mg QD, Day 42): 71 pmol/L | plasma aldosterone concentration, mean (baseline aldosterone 1000-2500 pmol/L, 12 mg QD, Day 56): 349 pmol/L | plasma aldosterone concentration, mean (baseline aldosterone 1000-2500 pmol/L, 12 mg QD, Day 70 (placebo withdrawal)): 1264 pmol/L
